This passage reports Kd results from PMC12951562, “SH2scan: Mapping SH2 Domain-Ligand Binding Selectivity for Inhibitors and Degraders” (Journal of Medicinal Chemistry, 2026).

Non-standard residues stand in square brackets, D forms with d. Residues, ends and D or L forms follow the SMILES beside them. pY = N[C@@H](Cc1ccc(OP(=O)(O)O)cc1)C(=O)O

Test in all cases: biochemical
Holding throughout (assay type): binding

For one test, the target named is T1, CRKL (Homo sapiens, UniProt P46109).
T1 construct: the DNA-tagged SH2 domain concentrations used in this study were <0.1 nM; made in house; host or cells: HEK293 (transient transfection; unpurified extract)
T1 sequence (P46109 14-102 limits assumed): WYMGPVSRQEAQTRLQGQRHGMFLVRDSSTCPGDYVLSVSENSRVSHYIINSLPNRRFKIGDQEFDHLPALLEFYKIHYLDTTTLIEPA

The next test has as its target T2, PLCG1(SH2dom.C-term.) (Homo sapiens, UniProt P19174).
T2 construct: SH2dom.C-term. denotes SH2 domain closest to C-terminus of protein; made in house; host or cells: HEK293 (transient transfection, unpurified extract)
T2 sequence (P19174 668-756 limits assumed): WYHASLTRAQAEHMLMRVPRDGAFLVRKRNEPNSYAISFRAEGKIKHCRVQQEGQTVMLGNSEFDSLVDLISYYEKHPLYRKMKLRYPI

Another test concerns the target T3, TXK (Homo sapiens, UniProt P42681).
T3 construct: made in house; host or cells: HEK293 (transient transfection), unpurified extract
T3 sequence (P42681 1-527): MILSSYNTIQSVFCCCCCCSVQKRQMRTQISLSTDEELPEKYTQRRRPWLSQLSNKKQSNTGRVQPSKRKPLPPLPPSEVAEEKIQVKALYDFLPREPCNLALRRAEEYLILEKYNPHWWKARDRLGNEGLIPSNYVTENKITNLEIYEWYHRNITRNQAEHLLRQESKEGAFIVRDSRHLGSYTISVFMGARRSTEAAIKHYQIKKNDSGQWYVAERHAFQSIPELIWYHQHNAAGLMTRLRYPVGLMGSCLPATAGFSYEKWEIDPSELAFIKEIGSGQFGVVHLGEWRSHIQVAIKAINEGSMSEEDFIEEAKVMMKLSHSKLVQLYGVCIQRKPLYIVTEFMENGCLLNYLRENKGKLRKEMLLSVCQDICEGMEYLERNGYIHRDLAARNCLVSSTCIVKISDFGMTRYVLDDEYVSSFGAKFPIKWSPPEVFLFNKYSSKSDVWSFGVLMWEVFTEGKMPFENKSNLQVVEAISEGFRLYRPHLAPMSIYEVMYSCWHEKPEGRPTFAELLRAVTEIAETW

A further test deals with T4, VAV1 (Homo sapiens, UniProt P15498).
T4 construct: made in house; host or cells: HEK293 (transient transfection), unpurified extract
T4 sequence (P15498 1-845): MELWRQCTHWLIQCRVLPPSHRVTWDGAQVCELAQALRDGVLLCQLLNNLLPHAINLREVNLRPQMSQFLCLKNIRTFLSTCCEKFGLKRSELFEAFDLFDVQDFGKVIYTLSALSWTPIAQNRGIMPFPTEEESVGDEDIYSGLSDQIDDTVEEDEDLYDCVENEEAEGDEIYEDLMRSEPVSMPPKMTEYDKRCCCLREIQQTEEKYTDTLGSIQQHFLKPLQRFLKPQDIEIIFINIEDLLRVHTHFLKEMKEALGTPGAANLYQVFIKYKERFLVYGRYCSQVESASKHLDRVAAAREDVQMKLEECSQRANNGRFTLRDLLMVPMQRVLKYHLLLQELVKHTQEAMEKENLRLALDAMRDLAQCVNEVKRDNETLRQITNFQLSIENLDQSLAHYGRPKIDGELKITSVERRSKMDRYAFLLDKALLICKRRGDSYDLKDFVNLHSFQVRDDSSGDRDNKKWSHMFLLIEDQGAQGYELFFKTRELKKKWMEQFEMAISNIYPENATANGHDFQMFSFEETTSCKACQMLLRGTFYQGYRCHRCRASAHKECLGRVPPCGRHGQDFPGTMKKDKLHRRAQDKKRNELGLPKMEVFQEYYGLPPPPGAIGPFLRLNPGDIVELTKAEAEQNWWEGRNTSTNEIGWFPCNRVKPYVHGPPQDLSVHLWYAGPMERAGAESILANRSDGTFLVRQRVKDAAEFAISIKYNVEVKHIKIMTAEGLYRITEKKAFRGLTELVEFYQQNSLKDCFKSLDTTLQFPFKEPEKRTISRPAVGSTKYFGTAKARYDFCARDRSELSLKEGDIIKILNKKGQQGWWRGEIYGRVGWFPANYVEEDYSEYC

The next test has as its target T5, VAV2 (Homo sapiens, UniProt P52735).
T5 construct: made in house; host or cells: HEK293 (transient transfection), unpurified extract
T5 sequence (P52735 1-878): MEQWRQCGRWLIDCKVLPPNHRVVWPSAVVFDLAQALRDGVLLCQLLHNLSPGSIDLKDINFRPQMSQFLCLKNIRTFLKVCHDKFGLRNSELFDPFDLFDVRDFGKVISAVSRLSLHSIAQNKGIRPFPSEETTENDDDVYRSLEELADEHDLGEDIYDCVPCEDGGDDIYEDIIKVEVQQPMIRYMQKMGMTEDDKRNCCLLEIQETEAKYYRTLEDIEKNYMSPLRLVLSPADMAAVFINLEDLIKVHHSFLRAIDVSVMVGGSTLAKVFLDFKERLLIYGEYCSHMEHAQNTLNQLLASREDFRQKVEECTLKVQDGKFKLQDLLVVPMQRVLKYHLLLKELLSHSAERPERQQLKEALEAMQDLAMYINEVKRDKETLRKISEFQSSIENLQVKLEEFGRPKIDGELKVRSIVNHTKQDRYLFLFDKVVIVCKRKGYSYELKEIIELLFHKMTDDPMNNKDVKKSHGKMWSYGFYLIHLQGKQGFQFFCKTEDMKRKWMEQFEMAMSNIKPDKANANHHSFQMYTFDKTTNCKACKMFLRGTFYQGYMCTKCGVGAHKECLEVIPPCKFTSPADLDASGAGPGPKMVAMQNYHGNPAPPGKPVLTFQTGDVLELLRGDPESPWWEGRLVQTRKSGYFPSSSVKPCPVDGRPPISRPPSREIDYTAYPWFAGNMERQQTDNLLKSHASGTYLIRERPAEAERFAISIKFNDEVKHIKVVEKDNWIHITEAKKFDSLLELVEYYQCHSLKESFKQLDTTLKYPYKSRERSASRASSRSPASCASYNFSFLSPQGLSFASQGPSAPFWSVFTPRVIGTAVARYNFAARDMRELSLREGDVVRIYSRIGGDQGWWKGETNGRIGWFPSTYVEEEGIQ

The next test addresses T6, VAV3 (Homo sapiens, UniProt Q9UKW4).
T6 construct: made in house; host or cells: HEK293 (transient transfection), unpurified extract
T6 sequence (Q9UKW4 1-847): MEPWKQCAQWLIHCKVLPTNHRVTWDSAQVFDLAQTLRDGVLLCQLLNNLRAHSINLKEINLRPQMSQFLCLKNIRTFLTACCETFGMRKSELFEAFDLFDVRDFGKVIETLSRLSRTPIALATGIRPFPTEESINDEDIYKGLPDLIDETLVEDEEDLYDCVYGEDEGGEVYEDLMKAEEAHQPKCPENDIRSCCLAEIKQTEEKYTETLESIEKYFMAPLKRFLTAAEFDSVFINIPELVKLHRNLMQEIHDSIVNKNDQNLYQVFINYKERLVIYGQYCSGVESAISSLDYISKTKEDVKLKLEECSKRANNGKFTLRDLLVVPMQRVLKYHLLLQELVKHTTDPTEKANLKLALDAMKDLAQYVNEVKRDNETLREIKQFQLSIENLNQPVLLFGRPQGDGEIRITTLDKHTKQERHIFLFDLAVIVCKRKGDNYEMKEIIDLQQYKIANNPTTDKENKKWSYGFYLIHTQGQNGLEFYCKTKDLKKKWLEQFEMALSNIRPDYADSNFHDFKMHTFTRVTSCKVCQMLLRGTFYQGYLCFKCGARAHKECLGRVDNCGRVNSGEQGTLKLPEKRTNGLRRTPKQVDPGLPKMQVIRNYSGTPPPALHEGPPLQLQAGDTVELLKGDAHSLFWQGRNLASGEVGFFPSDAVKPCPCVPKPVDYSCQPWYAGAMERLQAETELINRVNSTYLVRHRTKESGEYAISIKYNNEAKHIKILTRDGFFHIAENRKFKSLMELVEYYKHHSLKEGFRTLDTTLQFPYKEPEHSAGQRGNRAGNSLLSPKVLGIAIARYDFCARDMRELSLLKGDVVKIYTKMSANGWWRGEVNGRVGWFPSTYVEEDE

The next test has as its target T7, SOCS1 (Homo sapiens, UniProt O15524).
T7 construct: made in house; host or cells: HEK293 (transient transfection), unpurified extract
T7 sequence (O15524 1-211): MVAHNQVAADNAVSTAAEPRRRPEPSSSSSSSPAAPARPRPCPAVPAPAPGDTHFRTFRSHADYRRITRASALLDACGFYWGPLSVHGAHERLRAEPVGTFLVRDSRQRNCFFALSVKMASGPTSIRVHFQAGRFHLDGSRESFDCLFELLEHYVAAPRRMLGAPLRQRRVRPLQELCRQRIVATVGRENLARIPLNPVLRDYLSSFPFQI

The target in a further test is T8, NCK1 (Homo sapiens, UniProt P16333).
T8 construct: the DNA-tagged SH2 domain concentrations used in this study were <0.1 nM; made in house; host or cells: HEK293 (transient transfection, unpurified extract)

The next test has as its target T9, TEC (Homo sapiens, UniProt P42680).
T9 construct: made in house; host or cells: HEK293 (transient transfection), unpurified extract
T9 sequence (P42680 1-631): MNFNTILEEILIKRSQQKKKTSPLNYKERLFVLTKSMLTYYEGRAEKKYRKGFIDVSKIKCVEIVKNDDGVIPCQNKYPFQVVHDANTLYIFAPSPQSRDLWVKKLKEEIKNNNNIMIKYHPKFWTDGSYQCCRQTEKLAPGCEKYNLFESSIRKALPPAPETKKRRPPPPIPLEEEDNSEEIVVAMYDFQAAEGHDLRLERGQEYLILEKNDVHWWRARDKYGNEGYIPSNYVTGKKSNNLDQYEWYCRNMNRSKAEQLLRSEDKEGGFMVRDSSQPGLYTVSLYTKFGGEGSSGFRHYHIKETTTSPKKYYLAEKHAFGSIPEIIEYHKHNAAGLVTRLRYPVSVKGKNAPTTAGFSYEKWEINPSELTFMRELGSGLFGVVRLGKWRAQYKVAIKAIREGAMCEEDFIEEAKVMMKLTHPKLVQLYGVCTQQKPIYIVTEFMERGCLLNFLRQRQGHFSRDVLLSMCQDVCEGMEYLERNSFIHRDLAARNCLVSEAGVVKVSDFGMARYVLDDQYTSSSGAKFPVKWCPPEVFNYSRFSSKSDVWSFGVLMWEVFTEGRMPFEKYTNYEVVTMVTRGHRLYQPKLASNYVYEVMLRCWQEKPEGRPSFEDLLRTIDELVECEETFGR

As to `CC(=O)N[C@@H](CCC(=O)O)C(=O)N1CCC[C@H]1C(=O)NCC(=O)N1CCC[C@H]1C(=O)N[C@@H](Cc1ccc(OP(=O)(O)O)cc1)C(=O)N[C@@H](C)C(=O)N[C@@H](CCC(N)=O)C(=O)N1CCC[C@H]1C(=O)N[C@@H](CO)C(=O)N[C@H](C(=O)N[C@@H](CC(N)=O)C(=O)N[C@H](C(N)=O)[C@@H](C)O)C(C)C` (Ac-EPGP[pY]AQPSVNT-NH2), the affinity on CRKL, expressed as Kd, was 1200 ± 309 nM.

For the compound `CC(=O)N[C@@H](CC(=O)O)C(=O)N[C@H](C(=O)N[C@@H](CCC(=O)O)C(=O)N[C@H](C(=O)N[C@@H](Cc1ccc(OP(=O)(O)O)cc1)C(=O)N[C@@H](CCC(=O)O)C(=O)N[C@@H](CO)C(=O)N1CCC[C@H]1C(=O)N[C@@H](Cc1ccc(OP(=O)(O)O)cc1)C(=O)N[C@@H](C)C(=O)N[C@@H](CC(=O)O)C(=O)N1CCC[C@H]1C(=O)N[C@@H](CCC(=O)O)C(N)=O)C(C)C)[C@@H](C)O` [Ac-DTEVpYESPpYADPE-NH2] (Ac-DTEV[pY]ESP[pY]ADPE-NH2), the Kd on PLCG1(SH2dom.C-term.) was determined as 2910 ± 2740 nM; at TXK, 4120 ± 637 nM; on VAV1 it was 1400 ± 193 nM; at VAV2, 95.1 ± 19.9 nM; at VAV3, 163 ± 48.2 nM.

Turning to `CC(=O)N[C@@H](CS)C(=O)N[C@@H](CCC(N)=O)C(=O)N[C@H](C(=O)N[C@@H](Cc1ccc(OP(=O)(O)O)cc1)C(=O)N[C@@H](Cc1ccccc1)C(=O)N[C@H](C(=O)N[C@@H](Cc1ccc(O)cc1)C(=O)N[C@@H](CC(=O)O)C(=O)N1CCC[C@H]1C(=O)N[C@@H](Cc1ccc(O)cc1)C(=O)N[C@@H](CO)C(=O)N[C@@H](CCC(=O)O)C(N)=O)[C@@H](C)O)C(C)C` (Ac-CQV[pY]FTYDPYSE-NH2), the equilibrium dissociation constant (Kd) on SOCS1 is 1430 ± 426 nM.

In the case of `CC[C@H](C)[C@H](NC(=O)[C@H](Cc1c[nH]cn1)NC(=O)[C@H](CCC(=O)O)NC(C)=O)C(=O)N[C@@H](Cc1ccc(OP(=O)(O)O)cc1)C(=O)N[C@@H](CC(=O)O)C(=O)N[C@@H](CCC(=O)O)C(=O)N[C@H](C(=O)N[C@@H](C)C(=O)N[C@@H](C)C(=O)N[C@@H](CC(=O)O)C(N)=O)C(C)C` [Ac-EHIpYDEVAAD-NH2], the Kd on NCK1 worked out at 15.3 ± 5.07 nM; on TEC, 267 ± 66.3 nM.

As a reminder, the Kd is the constant that tells how readily two partners part at equilibrium. Low values mean tighter binding, high ones weaker binding.
